In PMC6709497, “Identification of Novel Trypanosoma cruzi Proteasome Inhibitors Using a Luminescence-Based High-Throughput Screening Assay” (Antimicrobial Agents and Chemotherapy, 2019):
Read-outs that look alike come from different tables or passages of the source. Starred links: 1 amine or outer side, 2 acyl side, 3 side chain; linkers in the order of their positions; H or OH if unused. Non-standard residues stand in square brackets, D forms with d. Residues, ends and D or L forms follow the SMILES beside them. ξ: configuration not given here. *: point of attachment. aminoluciferin = aminoluciferin attached at the C-terminus (luminogenic reporter), O=C(O)[C@H]1CSC(c2nc3ccc(N*)cc3s2)=N1; Suc = O=C(CCC(=O)[*:2])[*:1]; Nva = CCC[C@H](N)C(=O)O; Cbz = O=C(OCc1ccccc1)*; ξL = CC(C)CC(N)C(=O)O

Tests used:
[1] = set-up: method as in PMID 28645201; conditions: cited from earlier work
[2] = target: T. cruzi proteasome chymotrypsin-like activity (Trypanosoma cruzi, UniProt V5BU39); experiment: Cell-free T. cruzi proteasome chymotrypsin-like activity luminescence assay (commercial inhibitors); type: biochemical
Excerpt: (§1) The commercially available Proteasome-Glo 3-substrate system and chymotrypsin-like assay kits (Promega; catalogue no. G8531 and G8622, respectively) were assembled according to the manufacturers’ protocols ([29]) unless otherwise stated. Briefly, Proteasome-Glo buffer was used to formulate the luciferin detection reagent (containing a recombinant thermostable luciferase enzyme) to approximately 0.35% (wt/vol) final assay concentration. The luciferin detection reagent was then mixed with Proteasome-Glo trypsin-, caspase-, or chymotrypsin-like reagents (comprising 15 μM Z-Leu-Arg-Arg-aminoluciferin (Z is benzyloxycarbonyl), 20 μM Z-Nle-Pro-Nle-Asp-aminoluciferin, or 20 μM suc-Leu-Leu-Val-Tyr-aminoluciferin substrate, respectively, at final assay concentrations), and the mixture was allowed to incubate at room temperature for 60 min prior to use. T. cruzi proteasome buffer comprised 50 mM Tris-HCl, pH 7.5, 10 mM sucrose, 5 mM MgCl2, 1 mM dithiothreitol, 2 mM ATP, 150 mM NaCl, 1 mM EDTA, and 0.05 mg/ml bovine serum albumin (BSA). […] Biochemical cell-free assays were performed in an 8-μl final assay volume using 384-well white low-volume plates (Greiner; catalogue no. 784904), and cellular assays were performed in a 50-μl final assay volume using 384-well standard volume plates (Greiner; catalogue no. 781098). Luminescence was read using an EnVision 2102 Multilabel Reader (PerkinElmer, USA) with 0.2-s per well reading time, unless otherwise specified. DMSO or compound was added to the assay plates using Echo acoustic dispensers (Labcyte, USA). Reagent addition for high-throughput screening assays was performed using an Xrd-384 liquid dispenser (FluidX, United Kingdom) and a BioFill Solo/Xrd-384 8-channel resin nozzle (0.5- to 200-μl) tubing cartridge (FluidX; catalogue no. 34-1003). Data analysis was performed using SigmaPlot 12.5 software unless otherwise stated. Z factor values were calculated using the following equation: Z factor = 1 − ({3 × [1.483 × (RLU MAD Max)]} + {3 × [1.483 × (RLU MAD Min)]})/(median RLU Max − median RLU Min), where MAD is the median absolute deviation, Max is the maximum-effect control samples, and Min is the minimum-effect control samples.
(§2) Next, 4 μl of luciferin detection and Proteasome-Glo chymotrypsin-, caspase-, or trypsin-like reagent mixtures were added to initiate the biochemical reaction. The reaction was allowed to proceed at room temperature for 60 min, after which the luminescence was read. Data were acquired from 4 independent replicates (n = 4). Relative luminescence unit (RLU) data were normalized to percent inhibition values relative to 100% effect (DMSO, 1% [vol/vol] final assay concentration in the absence of T. cruzi proteasome enzyme) and 0% effect (DMSO, 1% [vol/vol] final assay concentration with T. cruzi proteasome enzyme) control populations using Microsoft Excel 2013 software. IC50 values were calculated by fitting the concentration-response data for each independent replicate separately to either a four-parameter logistic model or a seven-parameter logistic model with the bottom curve plateau parameter constrained to zero, as shown below.
The four-parameter logistic model is as follows: y=Min+Max−Min/1+(x/IC50)^−Hillslope
The seven-parameter logistic model is as follows: y=(Max_1+{Min−Max_1/1+[(x/IC50_1)^Hillslope_1]})+(Max_2−{Max_2/1+[(x/IC50_2)^Hillslope_2]}) […]

[3] = tested on: T. cruzi strain Silvio X10/7 epimastigotes; experiment: Cellular T. cruzi epimastigote viability assay; type: cell-based, Trypanosoma cruzi; conditions: 96 h; for EC50: Trypanosoma cruzi, read-out: Cellular pEC50 ± SD (converted)
Method: For the cell viability readout, BacTiter-Glo microbial cell viability reagent (Promega; catalogue no. G8230) was added to each well (25 μl) and incubated at room temperature for 5 min. The plates were then sealed with clear film, and the luminescence was read using a Victor 3 (PerkinElmer, USA) or Pherastar FS (BMG Labtech, Germany) plate reader with a 0.5-s per well reading time. Data for epoxomicin were obtained from three independent replicates (n = 3), and data for all the remaining compounds were acquired from four independent replicates (n = 4). RLU data were normalized to percent inhibition values relative to 100% effect (Nifurtimox) and 0% effect (DMSO; 1% [vol/vol] final assay concentration) control populations. Normalized data for each independent replicate were fitted separately to a four-parameter logistic regression model, and pEC50 {i.e., −log(EC50[M])} values were calculated using IBDS ActivityBase 8.1.2.12 software, after which a mean pEC50 value for each compound was calculated.

[4] = target: T. cruzi proteasome caspase-like activity (Trypanosoma cruzi, UniProt V5BHX1); experiment: Cell-free T. cruzi proteasome caspase-like activity luminescence assay; type: biochemical; conditions: n = 4; 20 μM Z-Nle-Pro-Nle-Asp-aminoluciferin
Excerpt: The commercially available Proteasome-Glo 3-substrate system and chymotrypsin-like assay kits (Promega; catalogue no. G8531 and G8622, respectively) were assembled according to the manufacturers’ protocols ([29]) unless otherwise stated. Briefly, Proteasome-Glo buffer was used to formulate the luciferin detection reagent (containing a recombinant thermostable luciferase enzyme) to approximately 0.35% (wt/vol) final assay concentration. The luciferin detection reagent was then mixed with Proteasome-Glo trypsin-, caspase-, or chymotrypsin-like reagents (comprising 15 μM Z-Leu-Arg-Arg-aminoluciferin (Z is benzyloxycarbonyl), 20 μM Z-Nle-Pro-Nle-Asp-aminoluciferin, or 20 μM suc-Leu-Leu-Val-Tyr-aminoluciferin substrate, respectively, at final assay concentrations), and the mixture was allowed to incubate at room temperature for 60 min prior to use. T. cruzi proteasome buffer comprised 50 mM Tris-HCl, pH 7.5, 10 mM sucrose, 5 mM MgCl2, 1 mM dithiothreitol, 2 mM ATP, 150 mM NaCl, 1 mM EDTA, and 0.05 mg/ml bovine serum albumin (BSA). T. cruzi strain Silvio X10/7 epimastigotes were maintained in vitro at 28°C in RTH-fetal calf serum (FCS) culture medium (RPMI 1640 supplemented with 0.4% Trypticase peptone, 0.017 M HEPES, 25 μM hemin, 10% heat-inactivated FCS). Biochemical cell-free assays were performed in an 8-μl final assay volume using 384-well white low-volume plates (Greiner; catalogue no. 784904), and cellular assays were performed in a 50-μl final assay volume using 384-well standard volume plates (Greiner; catalogue no. 781098). Luminescence was read using an EnVision 2102 Multilabel Reader (PerkinElmer, USA) with 0.2-s per well reading time, unless otherwise specified. DMSO or compound was added to the assay plates using Echo acoustic dispensers (Labcyte, USA). Reagent addition for high-throughput screening assays was performed using an Xrd-384 liquid dispenser (FluidX, United Kingdom) and a BioFill Solo/Xrd-384 8-channel resin nozzle (0.5- to 200-μl) tubing cartridge (FluidX; catalogue no. 34-1003). Data analysis was performed using SigmaPlot 12.5 software unless otherwise stated. Z factor values were calculated using the following equation: Z factor = 1 − ({3 × [1.483 × (RLU MAD Max)]} + {3 × [1.483 × (RLU MAD Min)]})/(median RLU Max − median RLU Min), where MAD is the median absolute deviation, Max is the maximum-effect control samples, and Min is the minimum-effect control samples.
as §2
The four-parameter logistic model is as follows: y=Min+Max−Min/1+(x/IC50)^−Hillslope […]

[5] = target: T. cruzi proteasome trypsin-like activity (Trypanosoma cruzi, UniProt V5BCU3+V5BGL9); experiment: Cell-free T. cruzi proteasome trypsin-like activity luminescence assay; type: biochemical; conditions: n = 4; 15 μM Z-Leu-Arg-Arg-aminoluciferin
Excerpt: as §1, with “Reagent addition for high-throughput screening assays was performed using an Xrd-384 liquid dispenser (FluidX, United Kingdom) and a BioFill Solo/Xrd-384 8-channel resin nozzle (0.5- to 200-μl) tubing cartridge (FluidX; catalogue no. 34-1003). Data analysis was performed using SigmaPlot 12.5 software unless otherwise stated.” left out
as §2, with “Data were acquired from 4 independent replicates (n = 4).” left out, “below. […]” for “below.”

[6] = tested on: proteasome chymotrypsin-like activity; set-up: method as in PMID 25308265; conditions: similar assay platform in a cellular system; read-out: Km, approximate value; cited from earlier work
T. cruzi proteasome = experiment: Kinetic-parameter (Km) determination for chymotrypsin-like substrate; type: biochemical, Trypanosoma cruzi; conditions: 95% CI = 78.8 to 108.4 μM; 60-min reaction; n = 3; read-out: apparent steady-state Km
Method: Assay linearity and the optimal amount of T. cruzi proteasome for screening was determined by first serially diluting (1 in 2; CMF = 0.5) the proteasome stock solution in proteasome buffer to generate 10 additional concentrations. Next, 4 μl of each of the T. cruzi proteasome solutions was added to 4 μl of the luciferin detection and Proteasome-Glo chymotrypsin-like reagent mixture. Luminescence was read immediately and then every 90 s for 75 min. Data were acquired from 5 technical replicates (n = 5). To calculate the Michaelis constant (Km) and identify the optimal amount of chymotrypsin-like suc-Leu-Leu-Val-Tyr-aminoluciferin substrate for screening, the Proteasome-Glo chymotrypsin-like assay (Promega; catalogue no. G8622) luciferin detection reagent (comprising luciferase enzyme in Proteasome-Glo buffer) was prepared according to the manufacturers’ protocol ([29]). A 1,200 μM solution (600 μM final assay concentration) of the substrate was prepared and subsequently serially diluted (1 in 2; CMF = 0.5) using the luciferin detection reagent to generate 8 additional concentrations. Next, 4 μl of each of the luciferin detection and substrate solution mixtures was added to 4 μl of partially purified T. cruzi proteasome that was diluted 1 in 4 (CMF = 0.25) from the original stock using proteasome buffer. Luminescence was read immediately and then every 90 s for 75 min. […]

[7] = BacTiter-Glo viability readout, n = 4 (epoxomicin n = 3)

T. cruzi proteasome chymotrypsin-like activity, sequence (V5BU39 entry or part of it): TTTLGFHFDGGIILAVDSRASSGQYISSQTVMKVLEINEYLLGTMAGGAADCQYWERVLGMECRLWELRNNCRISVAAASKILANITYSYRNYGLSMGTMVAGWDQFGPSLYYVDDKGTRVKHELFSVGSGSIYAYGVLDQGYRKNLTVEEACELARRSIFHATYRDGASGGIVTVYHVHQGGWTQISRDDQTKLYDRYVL
T. cruzi proteasome chymotrypsin-like activity, sequence (A0A2V2VW62 entry or part of it, further chain): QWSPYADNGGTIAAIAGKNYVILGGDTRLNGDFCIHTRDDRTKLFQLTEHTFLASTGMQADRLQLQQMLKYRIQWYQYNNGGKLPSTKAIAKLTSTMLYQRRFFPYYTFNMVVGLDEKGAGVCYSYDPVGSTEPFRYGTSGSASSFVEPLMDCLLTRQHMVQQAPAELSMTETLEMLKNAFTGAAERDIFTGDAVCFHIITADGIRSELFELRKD
T. cruzi proteasome chymotrypsin-like activity, sequence (V5C017 entry or part of it, further chain): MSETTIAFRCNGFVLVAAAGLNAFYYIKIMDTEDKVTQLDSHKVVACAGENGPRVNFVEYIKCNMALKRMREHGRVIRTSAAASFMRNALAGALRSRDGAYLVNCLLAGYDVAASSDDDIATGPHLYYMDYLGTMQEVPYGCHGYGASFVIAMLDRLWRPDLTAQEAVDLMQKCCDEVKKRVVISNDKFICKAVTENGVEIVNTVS
T. cruzi proteasome caspase-like activity, sequence (V5BHX1 entry or part of it): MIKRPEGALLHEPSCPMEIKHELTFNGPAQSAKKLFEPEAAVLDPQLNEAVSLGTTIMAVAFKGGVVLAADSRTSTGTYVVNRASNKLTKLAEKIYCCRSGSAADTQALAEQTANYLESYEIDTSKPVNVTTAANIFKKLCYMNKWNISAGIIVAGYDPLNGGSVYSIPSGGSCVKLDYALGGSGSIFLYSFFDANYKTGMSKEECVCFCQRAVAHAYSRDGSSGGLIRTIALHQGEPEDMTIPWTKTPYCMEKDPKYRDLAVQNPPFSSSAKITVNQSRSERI
T. cruzi proteasome trypsin-like activity, sequence (V5BGL9 entry or part of it): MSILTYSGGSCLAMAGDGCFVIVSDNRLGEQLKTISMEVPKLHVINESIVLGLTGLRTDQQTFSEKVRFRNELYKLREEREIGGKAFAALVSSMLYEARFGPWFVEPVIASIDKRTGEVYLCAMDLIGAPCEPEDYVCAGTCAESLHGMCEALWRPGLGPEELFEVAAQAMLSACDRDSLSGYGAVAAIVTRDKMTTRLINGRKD
T. cruzi proteasome trypsin-like activity, sequence (V5BCU3 entry or part of it): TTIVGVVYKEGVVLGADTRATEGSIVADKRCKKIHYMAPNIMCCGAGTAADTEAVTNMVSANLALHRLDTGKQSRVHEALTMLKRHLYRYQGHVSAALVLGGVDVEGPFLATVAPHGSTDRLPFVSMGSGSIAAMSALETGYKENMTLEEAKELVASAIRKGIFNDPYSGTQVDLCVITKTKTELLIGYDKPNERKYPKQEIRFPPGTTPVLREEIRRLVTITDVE

Compound	chymotrypsin-like activity dose-response curve shape [2]	EC50 [3, 7] [nM]	Cell-free pIC50 ± SD, Caspase-like [4] [M]	Cell-free pIC50 ± SD, Trypsin-like [5] [M]	further results
O=C(Cn1ccnc1[N+](=O)[O-])NCc1ccccc1 [Benznidazole, benznidazole]	–	–	–	–	treatment discontinuation rate due to side effects [1]: 10%
CC(C)C[C@H](NC(=O)[C@H](Cc1ccccc1)NC(=O)c1cnccn1)B(O)O [Bortezomib, bortezomib]	biphasic	240	7.16 ± 0.13	–	IC30 ([2]; concentration approximately equivalent to IC30, used for spiking test plates): ~4 nM; IC70 ([2]; concentration approximately equivalent to IC70, used for spiking test plates): ~79 nM
CC[C@H](C)[C@H](NC(=O)[C@H]([C@@H](C)CC)N(C)C(C)=O)C(=O)N[C@H](C(=O)N[C@@H](CC(C)C)C(=O)[C@@]1(C)CO1)[C@@H](C)O [Epoxomicin, epoxomicin]	–	–	5.85 ± 0.05	6.10 ± 0.06	EC50 [3]: 63.1 nM
CC(C)C[C@H](NC(=O)CNC(=O)c1cc(Cl)ccc1Cl)B(O)O [Ixazomib, ixazomib]	biphasic	708	7.49 ± 0.17	5.51 ± 0.07	–
CCC[C@@H](C=O)NC(=O)C(CC(C)C)NC(=O)[C@H](CC(C)C)NC(=O)OCc1ccccc1 (stereo partly drawn) [MG115] (Cbz-Leu-[ξL]-[Nva]-aldehyde)	–	4370	4.91 ± 0.10	4.87 ± 0.09	–
CC(C)C[C@@H](C=O)NC(=O)[C@H](CC(C)C)NC(=O)[C@H](CC(C)C)NC(=O)OCc1ccccc1 [MG132] (Cbz-Leu-Leu-Leu-aldehyde)	biphasic	–	6.01 ± 0.09	4.88 ± 0.14	EC50 [3]: 2450 nM
oprozomib	–	–	–	–	Cellular pEC50 ± SD [3, 7]: 6.53 ± 0.32 M
succinyl-Leu-Leu-Val-Tyr-aminoluciferin (Suc-LLVY-aminoluciferin; SMILES CC(C)C[C@H](NC(=O)CCC(=O)O)C(=O)N[C@@H](CC(C)C)C(=O)N[C@H](C(=O)N[C@@H](Cc1ccc(O)cc1)C(=O)Nc1ccc2nc(C3=N[C@@H](C(=O)O)CS3)sc2c1)C(C)C) [suc-Leu-Leu-Val-Tyr-aminoluciferin, luminogenic chymotrypsin-like peptide substrate]	–	–	–	–	Km [6]: ~60 µM; Km (T. cruzi proteasome): 93.5 µM
